Holding throughout (type): biochemical, Clostridium thermocellum
The test system of one test is exoglucanase L3. Kind of test: Enzymatic hydrolysis in solution with purified exoglucanase L3, MS-TOF assay. The settings on record: reaction in solution. The protocol: (§1) To verify, the exoglucanases (L3) and endoglucanase (44A) were prepared according methods well known in the literature with minor modifications. First, enzymatic hydrolysis reactions were conducted in solution with the purified enzymes using substrates 8, 9 and 10. At the completion of the reaction, the solution mixtures were transferred to the PTFE-like ACG slide, and prepared by using the same washing procedures before being subjected to MS-TOF assay.
(§2) For each carbohydrate, a specific enzyme was added: (a) is the control run without enzymes, (b) is exoglucanase L3, and (c) is endoglucanase 44A. […]
(§3) Cellulase was prepared (5 U/mL in 25 mM pH 5.05 NaOAc buffer solution). Substrate was also dissolved in NaOAc buffer solution (25 mM, pH 5.05) to give 0.5 mM substrate solution. Add 100 uL cellulase solution to 100 uL substrate solution in eppendorf to have a 2.5 U/mL cellulase solution with 0.25 mM substrate. This solution was incubated in 37° C. for 18 hours. Add 100 μL incubated solution onto the slide loaded in FAST® Frame. Put the slide in dry box to remove the water, and then use high vacuum to remove trace water. 100 μL water was used to rinse each well of the FAST® Frame multi-slide plate to solve and remove the salt of the buffer solution. Remove any residual water on the plate by high vacuum and then analyzed the slide by MALDI-TOF Ultra-Flex II.
(§4) The genomic DNA of Sulfolobus solfataricus (ATCC 35092) and Clostridium thermocellum (ATCC 27405) were obtained from the ATCC biological resource center. The Sso7d (NCBI accession number: AAK42090) gene fragment was amplified directly from the Sulfolobus solfataricus genome by polymerase chain reaction (PCR) with forward 5′ […] 3′ (SEQ ID NO: 1) and reverse 5′ […] 3′ (SEQ ID NO: 2) primers. The PCR product encoding Sso7d was digested with NdeI and BamHI and subsequently cloned into expression vector pET-28a (Novagen) to generate pET-28-Sso7d. […]

The test system of test [1] is endoglucanase 44A. Briefly: Enzymatic hydrolysis in solution with purified endoglucanase 44A, MS-TOF assay. The settings on record: reaction in solution. As for the experimental part: as §1, §2, §3, §4
The test system of test [2] is endoglucanase 44A. Briefly: Enzymatic hydrolysis on the PTFE-like ACG surface with endoglucanase 44A, MS-TOF assay. As to conditions: substrate immobilized on the PTFE-like ACG surface. The protocol: as §2
For comparison and as illustrated according to implementations shown in FIG. 23, substrate 8, 9, and 10 were immobilized on the PTFE-like ACG surface and carried out the cellulase hydrolysis on the surface directly, after the same washing procedures, these slides were subjected to MS-TOF assay. […] The endoglucanase 44A can't accept compound 8 or 9 as a substrate. […] From the above results, the cellotetraose substrate 10 was the best carbohydrate to create array on the PTFE-like ACG surface for the experiments conducted. By using this array, the activity and specificity of unknown cellulase may be examined.
Cellulase was prepared (5 U/mL in 25 mM pH 5.05 NaOAc buffer solution). Substrate was also dissolved in NaOAc buffer solution (25 mM, pH 5.05) to give 0.5 mM substrate solution. Add 50 μL cellulase solution to 50 μL substrate solution onto the glass slide which was loaded in FAST® Frame multi-slide plate to have a 2.5 U/mL cellulase solution with 0.25 mM substrate. The well of the plate was sealed and the whole assembly was incubated in 37° C. for 18 hours. Put the slide in dry box to remove the water, and then use high vacuum to remove trace water. 100 uL water was used to rinse each well of the FAST® Frame multi-slide plate to solve and remove the salt of the buffer solution. Remove any residual water on the plate by high vacuum and then analyzed the slide by MALDI-TOF Ultra-Flex II.
The genomic DNA of Sulfolobus solfataricus (ATCC 35092) and Clostridium thermocellum (ATCC 27405) were obtained from the ATCC biological resource center. The Sso7d (NCBI accession number: AAK42090) gene fragment was amplified directly from the Sulfolobus solfataricus genome by polymerase chain reaction (PCR) with forward 5′ […] 3′ (SEQ ID NO: 1) and reverse 5′ […] 3′ (SEQ ID NO: 2) primers. […]

On to `O=C(NCCCCCO[C@@H]1O[C@H](CO)[C@@H](O[C@@H]2O[C@H](CO)[C@@H](O)[C@H](O)[C@H]2O)[C@H](O)[C@H]1O)OCCCC(F)(F)C(F)(F)C(F)(F)C(F)(F)C(F)(F)C(F)(F)C(F)(F)C(F)(F)F` [Compound 8, [(4,4,5,5,6,6,7,7,8,8,9,9,10,10,11,11,12,12,12-nonadecafluorododecoxycarbonyl-amino)pentyl] ß-D-cellobioside], for which the “Cleavage of the substrate by exoglucanase L3 (in words)” value with exoglucanase L3 is recorded as “slowly”. Besides, the “Cleavage of the substrate by endoglucanase 44A (in words)” value in the test with endoglucanase 44A [1] and in the test on endoglucanase 44A [2] was “can't accept” each time.
Turning to `O=C(NCCCCCO[C@@H]1O[C@H](CO)[C@@H](O[C@@H]2O[C@H](CO)[C@@H](O[C@@H]3O[C@H](CO)[C@@H](O)[C@H](O)[C@H]3O)[C@H](O)[C@H]2O)[C@H](O)[C@H]1O)OCCCC(F)(F)C(F)(F)C(F)(F)C(F)(F)C(F)(F)C(F)(F)C(F)(F)C(F)(F)C(F)(F)F` [Compound 9, [(4,4,5,5,6,6,7,7,8,8,9,9,10,10,11,11,12,12,12-nonadecafluorododecoxycarbonyl-amino)pentyl] ß-D-glucopyranosyl-(1→4)-ß-D-glucopyranosyl-(1→4)- -ß-D-glucopyranoside], the “Cleavage of the substrate by exoglucanase L3 (in words)” value with exoglucanase L3 is “quickly”. The “Cleavage of the substrate by endoglucanase 44A (in words)” value in the test on endoglucanase 44A [1] and with endoglucanase 44A [2] was “can't accept” in each case.

For the origin of these results see US10274488B2, “Glycan arrays on PTFE-like aluminum coated glass slides and related methods” (Academia Sinica, priority 2008, dated 2019).
